# Data published in patent US8318792B2, “Therapeutic agent for amyotrophic lateral sclerosis” (Nippon Medical School Foundation, priority 2006, dated 2012).
# Experiments:
# Assay type in all cases: in vivo, mouse
# G1H-G93A transgenic mice [1] = assay: Exercise tolerance test: beam balance test; settings: 5 mg/kg oral daily from 80th day (before onset), score 0-2
# Procedure: (§1) The following five kinds of exercise tolerance tests were conducted every fifth day from the 70th day after birth to evaluate the ability to exercise in the respective exercise tolerance tests. That is, the days for the exercise tolerance tests were every fifth days, such as the 70th day, 75th day, 80th day, 85th day and so on, after birth. The exercise tolerance tests were conducted throughout the survival period, and the post-mortem evaluation was based on the definitions of the following five kinds of exercise tolerance tests.
# The apparatus used in the beam balance test is constructed by maintaining a wooden beam having a diameter of 1.5 cm horizontally, and installing platforms which serve as footholds, on the respective sides in a distance of 30 cm. A mouse is placed on the platform on one side, and the time taken by the mouse to cross over the beam which is 30 cm in length and to arrive at the platform on the opposite side is measured. The evaluation of the beam balance test for the mouse was performed based on the following criteria: Score 0=The time is 10 seconds or less; Score 1=The time is more than 10 seconds to 15 seconds; and Score 2=The time is more than 15 seconds, or the mouse falls down. The post-mortem evaluation of the beam balance test is defined as score 2.
# G1H-G93A transgenic mice [2] = assay: Exercise tolerance test: inclined plane test; settings: for Inclined plane test score: 5 mg/kg oral daily from 80th day (before onset), score 0-3, 5 mg/kg
# Procedure: as §1
# The apparatus used in the inclined plane test is an apparatus allowing a wooden board to be fixed at the respective angles of 45°, 65° and 80° from a horizontal plane. A mouse is placed in the posture of head-up position on the wooden board inclined at each angle and the mouse is allowed to maintain this position for 5 seconds without falling downward. In the evaluation method of the inclined plane test for each mouse, the number of seconds (TA seconds: 5 seconds or less) during which the position could be maintained without falling downward is measured at each of the angles (A) of 45°, 65° and 80°, and then the total sum value of the products of the angle (A) and the number of seconds (TA) during which the position could be maintained: Σ [Angle(A)×Time (TA)] is calculated. Since a normal mouse is capable of maintaining the position on the wooden board inclined to the respective angles for 5 seconds, the sum value of Σ [Angle(A)×Time (TA)] will be 80×5+65×5+45×5=950. The evaluation of the inclined plane test for the mouse was performed based on the following criteria: Score 0=950; Score 1=over 550 to less than 950; Score 2=over 225 to 550; and Score 3=225 and below. The post-mortem evaluation of the inclined plane test is defined as score 3.
# G1H-G93A transgenic mice [3] = assay: Exercise tolerance test: rotarod test; settings: for Rotarod test score: 5 mg/kg oral daily from 80th day (before onset), score 0-3
# Procedure: as §1
# The apparatus used in the Rotarod test (Rota Rod Treadmill type 7600, Ugo Basile Co., Milano, Italy) is a rotating axle having a diameter of 3.6 cm, and this rotating axle is set up so as to have 16 revolution per minute (one rotation: 3.75 seconds). The period for which a mouse can remain on a rotating axle without falling is measured. The evaluation of the rotarod test for the mouse was performed based on the following criteria: Score 0=The time exceeds 60 seconds; Score 1=The time is more than 30 seconds and 60 seconds or less; Score 2=The time is more than 4 seconds and 30 seconds or less; and Score 3=The time is 4 seconds or less. The post-mortem evaluation of the rotarod test is defined as score 3.
# [4] = from the 125th day to 140th day after birth
compound,measurement,setting,value
"Cc1nc(-c2ccc(OCC(C)C)c(C#N)c2)sc1C(=O)O [compound (c), 2-[3-cyano-4-(2-methylpropoxy)phenyl]-4-methyl-5-thiazolecarboxylic acid]",Beam balance test score,"G1H-G93A transgenic mice [1]; 70th day after birth, 5 mg/kg",0.0±0.0
same,Beam balance test score,"G1H-G93A transgenic mice [1]; 75th day after birth, 5 mg/kg",0.0±0.0
same,Beam balance test score,"G1H-G93A transgenic mice [1]; 80th day after birth, 5 mg/kg",0.0±0.0
same,Beam balance test score,"G1H-G93A transgenic mice [1]; 85th day after birth, 5 mg/kg",0.0±0.0
same,Beam balance test score,"G1H-G93A transgenic mice [1]; 90th day after birth, 5 mg/kg",0.0±0.0
same,Beam balance test score,"G1H-G93A transgenic mice [1]; 95th day after birth, 5 mg/kg",0.0±0.0
same,Beam balance test score,"G1H-G93A transgenic mice [1]; 100th day after birth, 5 mg/kg",0.0±0.0
same,Beam balance test score,"G1H-G93A transgenic mice [1]; 105th day after birth, 5 mg/kg",0.0±0.0
same,Beam balance test score,"G1H-G93A transgenic mice [1]; 110th day after birth, 5 mg/kg",0.1±0.3
same,Beam balance test score,"G1H-G93A transgenic mice [1]; 115th day after birth, 5 mg/kg",0.7±0.8
same,Beam balance test score,"G1H-G93A transgenic mice [1]; 120th day after birth, 5 mg/kg",1.4±0.7
same,Beam balance test score,G1H-G93A transgenic mice [1]; 125th day after birth,2.0 ± 0.0
same,Beam balance test score,G1H-G93A transgenic mice [1]; 130th day after birth,2.0 ± 0.0
same,Beam balance test score,G1H-G93A transgenic mice [1]; 135th day after birth,2.0 ± 0.0
same,Beam balance test score,G1H-G93A transgenic mice [1]; 140th day after birth,2.0 ± 0.0
same,Beam balance test score,G1H-G93A transgenic mice [1]; [4],2.0±0.0
same,Inclined plane test score,G1H-G93A transgenic mice [2]; 70th day after birth,0.0±0.0
same,Inclined plane test score,G1H-G93A transgenic mice [2]; 75th day after birth,0.0±0.0
same,Inclined plane test score,G1H-G93A transgenic mice [2]; 80th day after birth,0.0±0.0
same,Inclined plane test score,G1H-G93A transgenic mice [2]; 85th day after birth,0.0±0.0
same,Inclined plane test score,G1H-G93A transgenic mice [2]; 90th day after birth,0.0±0.0
same,Inclined plane test score,G1H-G93A transgenic mice [2]; 95th day after birth,0.0±0.0
same,Inclined plane test score,G1H-G93A transgenic mice [2]; 100th day after birth,0.0±0.0
same,Inclined plane test score,G1H-G93A transgenic mice [2]; 105th day after birth,0.0±0.0
same,Inclined plane test score,G1H-G93A transgenic mice [2]; 110th day after birth,0.0±0.0
same,effect in inclined plane test as compared to placebo group,"G1H-G93A transgenic mice [2]; 110th, 115th, 120th, 125th and 130th day, 5 mg/kg oral daily from 80th day after birth, Mann-Whitney's U test",significant effects
same,Inclined plane test score,G1H-G93A transgenic mice [2]; 115th day after birth,0.1±0.3
same,Inclined plane test score,G1H-G93A transgenic mice [2]; 120th day after birth,0.8±0.6
same,Inclined plane test score,G1H-G93A transgenic mice [2]; 125th day after birth,1.2±0.8
same,Inclined plane test score,G1H-G93A transgenic mice [2]; 130th day after birth,2.3±0.7
same,Inclined plane test score,G1H-G93A transgenic mice [2]; 135th day after birth,2.9±0.3
same,Inclined plane test score,G1H-G93A transgenic mice [2]; 140th day after birth,3.0±0.0
same,Rotarod test score,"G1H-G93A transgenic mice [3]; 70th day after birth, 5 mg/kg",0.0±0.0
same,Rotarod test score,"G1H-G93A transgenic mice [3]; 75th day after birth, 5 mg/kg",0.0±0.0
same,Rotarod test score,"G1H-G93A transgenic mice [3]; 80th day after birth, 5 mg/kg",0.0±0.0
same,Rotarod test score,"G1H-G93A transgenic mice [3]; 85th day after birth, 5 mg/kg",0.0±0.0
same,Rotarod test score,"G1H-G93A transgenic mice [3]; 90th day after birth, 5 mg/kg",0.0±0.0
same,Rotarod test score,"G1H-G93A transgenic mice [3]; 95th day after birth, 5 mg/kg",0.0±0.0
same,Rotarod test score,"G1H-G93A transgenic mice [3]; 100th day after birth, 5 mg/kg",0.0±0.0
same,Rotarod test score,"G1H-G93A transgenic mice [3]; 105th day after birth, 5 mg/kg",0.0±0.0
same,effect in rotarod test as compared to placebo group,"G1H-G93A transgenic mice [3]; 105th, 110th and 115th day, 5 mg/kg oral daily from 80th day after birth, Mann-Whitney's U test",significant effects
same,Rotarod test score,"G1H-G93A transgenic mice [3]; 110th day after birth, 5 mg/kg",0.4±0.8
same,Rotarod test score,"G1H-G93A transgenic mice [3]; 115th day after birth, 5 mg/kg",1.3±1.3
same,Rotarod test score,"G1H-G93A transgenic mice [3]; 120th day after birth, 5 mg/kg",2.5±0.5
same,Rotarod test score,G1H-G93A transgenic mice [3]; 125th day after birth,3.0 ± 0.0
same,Rotarod test score,G1H-G93A transgenic mice [3]; 130th day after birth,3.0 ± 0.0
same,Rotarod test score,G1H-G93A transgenic mice [3]; 135th day after birth,3.0 ± 0.0
same,Rotarod test score,G1H-G93A transgenic mice [3]; 140th day after birth,3.0 ± 0.0
same,Rotarod test score,G1H-G93A transgenic mice [3]; [4],3.0±0.0
